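Growth conditions: 96-well plates. Treatment: test compound, 48 hours, 5 concentrations. Analysis: linear interpolation between bracketing concentrations; unreached endpoints set to highest concentration. TGI marks complete inhibition of growth.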 A value given as a limit tells only on which side of the number the result lay.

The values that follow come from PubChem BioAssay (NCI).

Experiment in all cases: NCI anticancer screen, dose series, 48 h
Test [1] has as its system OVCAR-4 ovarian.
The subject of test [2] is HCC-2998 colon.
Test [3] has as its system MCF7 breast.
The subject of test [4] is OVCAR-3 ovarian.
Test [5] relates to LOX IMVI melanoma.
For test [6], the system named is HOP-62 NSCLC.
Test [7] has as its system T-47D breast.
Test [8] relates to M14 melanoma.
The test system of test [9] is SN12C renal.
In test [10] the test system is NCI-H460 lung.
Test [11] deals with DU-145 prostate.
The test system of test [12] is SK-MEL-2 melanoma.

In the case of `CCP(=O)(CC)C(Cl)(Cl)C(O)C(C)(C)C` (centres undefined), the TGI in test [1], in test [2], in test [3], in [4], in test [5] and in [6] was greater than 100 µM in each case. For the same compound, the TGI in test [7], in [8], in test [9], in test [10], in [11] and in test [12] was greater than 100 µM throughout.

Regarding `CC(=O)OCC1OC(n2c(N)c(C#N)c(-c3ccccc3)c(C#N)c2=S)C(OC(C)=O)C(OC(C)=O)C1OC(C)=O` (centres undefined), the TGI is greater than 100 µM in [1]; greater than 100 µM in [2]; greater than 100 µM in test [3]; greater than 100 µM in test [4]; greater than 100 µM in test [5]; 45 µM in [6]. For the same compound, the TGI in [7], in test [8], in [9], in [10], in [11] and in [12] was greater than 100 µM in each case.

`COC(=O)C(CCC1C=CCC1)N=Cc1ccccc1` (centres undefined): the TGI in test [1], in test [2], in test [3], in test [4], in [5] and in test [6] was greater than 100 µM each time. The TGI in test [7], in [8], in [9], in test [10], in [11] and in [12] was greater than 100 µM throughout.

With `COP(C)(=O)/C(Cc1ccccc1)=N\O` (centres undefined), the TGI in test [1], in [2], in [3], in test [4], in [5] and in [6] was greater than 100 µM throughout. The TGI in test [7], in [8], in [9], in test [10], in test [11] and in [12] was greater than 100 µM throughout.

Turning to `Cc1ccc(/C=C/C(=O)c2c([O-])on[n+]2-c2ccccc2)cc1`, the TGI was greater than 21.1 µM in test [1]; 4.15 µM in test [2]; 19 µM in [3]; 6.92 µM in [4]; 3.74 µM in test [5]; 24.9 µM in test [6]. The TGI in test [7] was 9.49 µM; in test [8] it was 5.98 µM; in test [9], 31.3 µM; in test [10], 6.38 µM; in test [11] it was 8.41 µM; in test [12] it was 5.39 µM.

With `O=C1CCCc2c1c1c(n2Cc2ccccc2)-c2ccccc2C1=O`, the TGI was 36.5 µM in test [1]; 30.3 µM in test [2]; greater than 100 µM in [3]; 36.7 µM in [4]; 39.5 µM in [5]; 50.2 µM in test [6]. For the same compound, the TGI in test [7] is 33.3 µM; in test [8], 46.4 µM; in test [9] it was 45.5 µM; in test [10], greater than 100 µM; in [11], greater than 100 µM; in test [12], 43 µM.

Consider `N#Cc1[nH]c(=O)n(-c2ccc(Cl)cc2)c1N`, for which the TGI in [1], in test [2], in [3], in [4], in test [5] and in test [6] was greater than 10 µM each time. Moreover, the TGI in test [7], in test [8], in test [9], in test [10], in test [11] and in test [12] was greater than 10 µM each time.

For the compound `CC(C)CCC1(O)O[C@H]2C[C@H]3[C@@H]4CCC5CC(=O)C=C[C@]5(C)[C@H]4CC[C@]3(C)[C@H]2[C@@H]1C` (some centres undefined), the TGI came to 24.3 µM in test [1]; 5.86 µM in [2]; 20.3 µM in test [3]; 22.9 µM in test [4]; 26.3 µM in test [5]; 28.4 µM in [6]. For the same compound, the TGI was found to be 25.6 µM in test [7]; 29.8 µM in [8]; 28 µM in [9]; 22.2 µM in test [10]; 28.2 µM in test [11]; 29.6 µM in test [12].

As to `Nc1nc(Cl)cc(NCC2(CO)CCC(Cc3ccccc3)C2)n1` (centres undefined), the TGI in test [1] is greater than 100 µM; in test [2] it was greater than 100 µM; in test [3], 71 µM; in test [4], greater than 100 µM; in test [5], 37.4 µM; in test [6], greater than 100 µM. For the same compound, the TGI in test [7] was greater than 70.3 µM; in [8], 46.6 µM; in test [9], greater than 100 µM; in test [10] it was greater than 100 µM; in [11], greater than 100 µM; in [12] it was greater than 75.7 µM.

For `CN1CCC2(CC1)C(=O)N(N1CCCCCC1)C(=O)N2c1ccccc1`, the TGI in test [1], in [2], in [3], in test [4], in test [5] and in test [6] was greater than 100 µM each time. The TGI in [7], in [8], in test [9], in test [10], in test [11] and in test [12] was greater than 100 µM throughout.

Regarding `O=C(CSc1nc(=O)[nH]c2nc[nH]c12)Nc1ccccc1`, the TGI in [1], in [2], in [3], in test [4], in test [5] and in test [6] was greater than 100 µM each time. The TGI in [7], in [8], in test [9], in [10], in test [11] and in test [12] was greater than 100 µM throughout.

As for `CC(NS(C)(=O)=O)c1ccccc1` (centres undefined), the TGI in test [1], in test [2], in test [3], in [4], in [5] and in test [6] was greater than 100 µM in each case. The TGI in [7], in [8], in [9], in test [10], in test [11] and in [12] was greater than 100 µM each time.
